Assay in all cases: growth of human tumour cells (NCI), 48 h
For test [1], the system named is CAKI-1.
For test [2], the system named is HCT-15.
Test [3] has as its system OVCAR-8.
The test system of test [4] is K562.
The test system of test [5] is SW-620.
In test [6] the test system is SF-539.
Test [7] deals with SK-OV-3.
Test [8] deals with SNB-19.
Test [9] concerns SK-MEL-5.
The test system of test [10] is OVCAR-4.
Test [11] concerns EKVX.
Test [12] concerns UO-31.
The subject of test [13] is UACC-257.
Test [14] deals with ACHN.
Test [15] has as its system NCI-H522.
In test [16] the test system is OVCAR-3.
Test [17] has as its system NCI-H23.
Test [18] deals with SF-295.
Test [19] has as its system HL-60.

SMILES strings stand for the structures.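 Compound exposure: 48 hours, 5 concentrations, 96-well plates. At the GI50, growth is halved.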 Activity calls are given as the source filed them. Cut-off read from the data, not from the text of the source: active = GI50 up to about 1.1 µM and inactive = higher. Some results are limits rather than exact numbers.

In the case of `CC1(C)OP(=O)(O)CC1=O`, the GI50 in test [1] is > 100 µM (inactive); in [2], more than 100 µM; in [3] it was > 100 µM (inactive); in test [4], > 100 µM (inactive); in [5] it was > 100 µM (inactive); in test [6], > 100 µM (inactive). The GI50 in test [7], in [8], in test [9], in test [10], in [11] and in [12] was > 100 µM (inactive) in each case. Further, the GI50 in test [13], in [14], in [15], in test [16], in test [17] and in test [18] was > 100 µM (inactive) each time.
With `N#CC1(CCCI)CCCC1`, the GI50 in [2] is 14.5 µM; in test [3] it was 51.1 µM (inactive); in [4], 27.7 µM (inactive); in test [5] it was 10.7 µM (inactive); in test [6] it was 15.5 µM (inactive); in test [7] it was 64.4 µM (inactive). Also, the GI50 in test [8] was 15.8 µM (inactive); in test [9], 12.9 µM (inactive); in [19] it was 6.1 µM (inactive); in test [11], 47.4 µM (inactive); in test [12], 27.9 µM (inactive); in [13], 22.6 µM (inactive). In addition, the GI50 in test [14] is 21.4 µM (inactive); in test [15], 3.24 µM (inactive); in test [16], 16 µM (inactive); in [17] it was 9.79 µM (inactive); in [18], 29.4 µM (inactive).
`CN1C(=O)CN=C(c2ccccc2F)c2cc(N=C=S)ccc21`: the GI50 in test [1] was 11.3 µM (inactive); in test [2], 35.8 µM; in [3], 47.5 µM (inactive); in [5], 53.5 µM (inactive); in test [7], > 100 µM (inactive); in test [8], 60 µM (inactive). Also, the GI50 in test [10] is 35.4 µM (inactive); in [19] it was 34.2 µM (inactive); in test [11], > 100 µM (inactive); in test [12] it was 17.1 µM (inactive); in test [13], 43.5 µM (inactive); in [14] it was 25.5 µM (inactive). Further, the GI50 in [15] was 0.665 µM (active); in test [16], 52 µM (inactive); in test [17], 62.4 µM (inactive); in test [18], 52.8 µM (inactive).
Turning to `CCC(C)(C)n1c(C)nc2c1C(=O)c1ccccc1C2=O`, the GI50 is 23.1 µM in test [2]; 36.1 µM (inactive) in test [3]; 13.6 µM (inactive) in [4]; 44.7 µM (inactive) in [5]; 26.5 µM (inactive) in test [6]; 44.9 µM (inactive) in test [7]. Further, the GI50 was 53.3 µM (inactive) in [8]; 15.7 µM (inactive) in [9]; 37.3 µM (inactive) in test [10]; 7.62 µM (inactive) in test [19]; 34.1 µM (inactive) in test [11]; 25.7 µM (inactive) in [12]. The GI50 is 33.5 µM (inactive) in test [13]; 32.9 µM (inactive) in [14]; 28.4 µM (inactive) in test [15]; 30.7 µM (inactive) in [16]; 27.7 µM (inactive) in test [17]; 38.9 µM (inactive) in test [18].
